# Results published in US7189751B2, “Oxa(thia)zolidine compounds, process for preparation thereof and anti-inflammatory agents” (Nippon Soda Co., Ltd., priority 2001, dated 2007).
# Legend:
# [1] = test system: Mouse Delayed Contact Dermatitis Induced by Picryl Chloride; test: Mouse delayed contact dermatitis induced by picryl chloride; assay type: in vivo
# Procedure: Pharmacological Test Example 3 Mouse Delayed Contact Dermatitis Induced by Picryl Chloride
# This pharmacological test was carried out referring to the method of Asherson, G. L. & Ptak, W. (Immunology, 15: 405–416 (1968).) and the method of Jun Hiroi (Folia Pharmacology of Japan, 86: 233–239 (1985).). More specifically, hairs on the abdomen of an ICR-strain male mouse were removed using an electric clipper and an electric shaver. Then, 0.1 mL of 7% ether solution of picryl chloride (Tokyo Kasei Kogyo Co., Ltd., C 0307) was applied onto the abdomen for sensitization. On the sixth day after the sensitization, 20 μL/ear of 1% olive oil solution of picryl chloride was topically applied to the anterior and posterior surfaces of both ears of the mouse to induce contact dermatitis (first induction). Before and 24 hours after the induction, the thicknesses of the particular parts on the both ears were measured three times, respectively, using a digimatic micrometer (Mitsutoyo Co., Ltd.) to work out the average values. Ear edema of the both ears was respectively determined by subtracting the average thickness of the each ear before the induction from that on 24 hours after the induction, so that a grouping was carried out to separate the appropriate individuals. On the fourth day after the first induction, the hairs on the abdomen were removed again, and 0.1 mL of 7% ethanol solution of picryl chloride was applied thereto for additional sensitization. The contact dermatitis for evaluating activity was induced by re-applying 20 μL/ear of 1% olive oil solution of picryl chloride to the anterior and posterior surfaces of both ears (second induction) on the seventh day after the additional sensitization (on the […] after the first sensitization). The activity of each compound of the present invention was evaluated as the inhibition on the contact dermatitis as compared with that of the vehicle applied control. That is, the thicknesses of the particular portions of the both ears were measured respectively three times with a digimatic micrometer to work out the mean values before, 24 hours and 48 hours after the second induction. Ear swelling was determined by subtracting the ear thickness before the second induction from that on 24 hours and 48 hours after the second induction, respectively. Topical application activity was evaluated by applying 25 μL of the acetone solution of the compound of the present invention similarly to the anterior and posterior surfaces of the right ear one hour before and 16 hours after the second induction. As the positive control, 0.02 mg/20 μL of acetone solution of Dexamethasone (hereinafter referred to as DEX, Wako Pure Chemical Industries Ltd., 047-18863) was applied similarly as for the compound of the present invention. With respect to the inhibitory activity in topical application tests, the topical activity was determined by the inhibition of the applied right ear edema, and the translocation and distribution property was determined by the activity onto the swelling of non-treated left ear. Oral administration activity was evaluated by administrating 0.5% methyl cellulose suspension of the compound of the present invention forcibly and perorally to the mouse an hour before and 16 hours after the second induction. As the positive control, 20 mg/kg of Prednisolone (Sigma Chemical Co., P 6004) suspension was administrated similarly as for the compounds of the present invention. […] As the examples, the body weight changes in the mice for 48 hours after the second induction when they were administrated with the compounds shown in Table 5 are shown in Table 6.
# [2] = test system: acetic acid induced writhes; test: Acetic acid writhing; assay type: in vivo, mouse
# Procedure: Pharmacological Test Example 4: Acetic Acid Wirthing
# This test was carried out referring to the method of Inoue, K., Motonaga, A. & Nishimura, T (Arzneimittel Forshung/Drug Research, 41 (1): 235–239 (1991)). More specifically, 7.5 mL/kg of 0.9% acetic acid solution was injected intraperitoneally into an ICR-strain male mouse (5 to 7 weeks old), and the induced writhes (characteristic behaviors of convulsive contracting the abdomen, twisting the body and/or extending the legs) were observed. Number of writhes of each mouse was measured during 10 to 20 min. period after acetic acid administration. […] The analgesic activity of the compounds according to the present invention was evaluated on the basis of the degree of inhibiting the number writhes by the administration of the compounds. As the positive control, indomethacin or aspirin was administrated. The analgesic activity of the compounds according to the present invention measured in this test were exemplified in Table 7.
smiles,measurement,setting,value
"CCOC(=O)C(=C1N[C@@H](C)[C@H](c2ccc(Cl)cc2)S1)[N+](=O)[O-] (relative stereo) [Compound 2-29, Trans-5-(4-chlorophenyl)-4-methyl-2-(1-ethoxycarbonyl-1-nitromethylene)-thiazolidine]",Change in body weight 48 hours after induction (Mean ± S.E.),"[1]; 1.5 mg/ear × 2, vehicle control −0.45 ± 0.20",-0.06 ± 0.15 g
same,Change in body weight 48 hours after induction (Mean ± S.E.) (%),"[1]; 1.5 mg/ear × 2, vehicle control −1.29 ± 0.59",−0.20 ± 0.48%
same,"Ear swelling after 24 hours, Right (Applied) (Mean ± S.E., mm)","[1]; topical 1.5 mg/25 μL/ear × 2, vehicle control 0.299 ± 0.006",0.261 ± 0.012 mm
same,"Ear swelling after 24 hours, Left (Not applied) (Mean ± S.E., mm)","[1]; topical 1.5 mg/25 μL/ear × 2 on right ear, vehicle control 0.284 ± 0.008",0.243 ± 0.020 mm
same,Number of writhes (Mean ± S.E.),"[2]; i.p. 1 mg/kg, 30 min before, vehicle i.p. 25.2 ± 2.2",5.5 ± 1.9
same,Number of writhes (Mean ± S.E.),"[2]; p.o. 10 mg/kg, 120 min before, vehicle p.o. 23.5 ± 3.1",1.5 ± 0.7
